Measured values: ChEMBL document CHEMBL1201862, “PubChem BioAssay data set” (2004)
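Compound exposure: 48 hours, 5 concentrations, 96-well plates. Abbreviation: GI50, concentration required for 50% inhibition of growth.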 The source made the active and inactive calls. Rule as the data show it: active = GI50 up to about 1.1 µM and inactive = higher.

Columns and labels:
Assay in all cases: inhibition of tumour cell growth, NCI panel, 48 h
786-0 = test system: 786-0
A498 = test system: A498
A549 = test system: A549
ACHN = test system: ACHN
BT-549 = test system: BT-549
CAKI-1 = test system: CAKI-1
CCRF-CEM = test system: CCRF-CEM
COLO 205 = test system: COLO 205
DU-145 = test system: DU-145
EKVX = test system: EKVX
HCC 2998 = test system: HCC 2998
HCT-116 = test system: HCT-116
HCT-15 = test system: HCT-15
HOP-62 = test system: HOP-62
HT-29 = test system: HT-29
Hs-578T = test system: Hs-578T
IGROV-1 = test system: IGROV-1
K562 = test system: K562
KM12 = test system: KM12
M14 = test system: M14
MCF7 = test system: MCF7
MDA-MB-231 = test system: MDA-MB-231
MDA-MB-435 = test system: MDA-MB-435
MDA-N = test system: MDA-N
MOLT-4 = test system: MOLT-4
Malme-3M = test system: Malme-3M
NCI-H226 = test system: NCI-H226
NCI-H23 = test system: NCI-H23
NCI-H460 = test system: NCI-H460
NCI-H522 = test system: NCI-H522
NCI/ADR-RES = test system: NCI/ADR-RES
OVCAR-3 = test system: OVCAR-3
OVCAR-4 = test system: OVCAR-4
OVCAR-5 = test system: OVCAR-5
OVCAR-8 = test system: OVCAR-8
PC-3 = test system: PC-3
RPMI-8226 = test system: RPMI-8226
RXF 393 = test system: RXF 393
SF-268 = test system: SF-268
SF-295 = test system: SF-295
SK-MEL-28 = test system: SK-MEL-28
SK-MEL-2 = test system: SK-MEL-2
SK-MEL-5 = test system: SK-MEL-5
SK-OV-3 = test system: SK-OV-3
SN12C = test system: SN12C
SNB-19 = test system: SNB-19
SNB-75 = test system: SNB-75
SR = test system: SR
SW-620 = test system: SW-620
T47D = test system: T47D
TK-10 = test system: TK-10
U-251 = test system: U-251
UACC-257 = test system: UACC-257
UACC-62 = test system: UACC-62
UO-31 = test system: UO-31
HL-60 = test system: HL-60
HOP-92 = test system: HOP-92
LOX IMVI = test system: LOX IMVI
SF-539 = test system: SF-539

Which GI50 (786-0) does the source give for `COC1OC2COC1(OCc1ccccc1)C1OC(C)(C)OC21` (stereo not drawn) here?
The GI50 was > 100 µM (inactive).

What about the GI50 (A498) of the same molecule?
The GI50 was > 100 µM (inactive).

What about the GI50 (A549) of the same molecule?
The GI50 was > 100 µM (inactive).

What about the GI50 (ACHN) of the same molecule?
The GI50 was > 100 µM (inactive).

What about the GI50 (BT-549) of the same molecule?
Its GI50 is > 100 µM (inactive).

What about the GI50 (CAKI-1) of the same molecule?
The GI50 was > 100 µM (inactive).

And the GI50 (CCRF-CEM)?
The GI50 was > 100 µM (inactive).

What about the GI50 (COLO 205) of the same molecule?
The GI50 was > 100 µM (inactive).

What about the GI50 (DU-145) of the same molecule?
The GI50 was > 100 µM (inactive).

What about the GI50 (EKVX) of the same molecule?
Its GI50 is > 100 µM (inactive).

What about the GI50 (HCC 2998) of the same molecule?
Its GI50 is > 100 µM (inactive).

What about the GI50 (HCT-116) of the same molecule?
The GI50 was > 100 µM (inactive).

What about the GI50 (HCT-15) of the same molecule?
The GI50 was greater than 100 µM.

What about the GI50 (HOP-62) of the same molecule?
Its GI50 is > 100 µM (inactive).

And the GI50 (HT-29)?
The GI50 was > 100 µM (inactive).

And the GI50 (Hs-578T)?
Its GI50 is > 100 µM (inactive).

What about the GI50 (IGROV-1) of the same molecule?
Its GI50 is > 100 µM (inactive).

What about the GI50 (K562) of the same molecule?
The GI50 was > 100 µM (inactive).

What about the GI50 (KM12) of the same molecule?
Its GI50 is > 100 µM (inactive).

What about the GI50 (M14) of the same molecule?
Its GI50 is > 100 µM (inactive).

What about the GI50 (MCF7) of the same molecule?
Its GI50 is > 100 µM (inactive).

And the GI50 (MDA-MB-231)?
The GI50 was > 100 µM (inactive).

What about the GI50 (MDA-MB-435) of the same molecule?
The GI50 was > 100 µM (inactive).

And the GI50 (MDA-N)?
The GI50 was > 100 µM (inactive).

What about the GI50 (MOLT-4) of the same molecule?
The GI50 was > 100 µM (inactive).

What about the GI50 (Malme-3M) of the same molecule?
The GI50 was > 100 µM (inactive).

What about the GI50 (NCI-H226) of the same molecule?
The GI50 was > 100 µM (inactive).

What about the GI50 (NCI-H23) of the same molecule?
Its GI50 is > 100 µM (inactive).

And the GI50 (NCI-H460)?
Its GI50 is > 100 µM (inactive).

And the GI50 (NCI-H522)?
The GI50 was > 100 µM (inactive).

And the GI50 (NCI/ADR-RES)?
The GI50 was > 100 µM (inactive).

And the GI50 (OVCAR-3)?
The GI50 was > 100 µM (inactive).

And the GI50 (OVCAR-4)?
The GI50 was > 100 µM (inactive).

And the GI50 (OVCAR-5)?
Its GI50 is > 100 µM (inactive).

And the GI50 (OVCAR-8)?
The GI50 was > 100 µM (inactive).

What about the GI50 (PC-3) of the same molecule?
Its GI50 is > 100 µM (inactive).

And the GI50 (RPMI-8226)?
The GI50 was > 100 µM (inactive).

And the GI50 (RXF 393)?
Its GI50 is > 100 µM (inactive).

And the GI50 (SF-268)?
The GI50 was > 100 µM (inactive).

And the GI50 (SF-295)?
Its GI50 is > 100 µM (inactive).

What about the GI50 (SK-MEL-28) of the same molecule?
Its GI50 is > 100 µM (inactive).

What about the GI50 (SK-MEL-2) of the same molecule?
Its GI50 is > 100 µM (inactive).

And the GI50 (SK-MEL-5)?
Its GI50 is > 100 µM (inactive).

What about the GI50 (SK-OV-3) of the same molecule?
The GI50 was > 100 µM (inactive).

And the GI50 (SN12C)?
The GI50 was > 100 µM (inactive).

What about the GI50 (SNB-19) of the same molecule?
Its GI50 is > 100 µM (inactive).

And the GI50 (SNB-75)?
Its GI50 is > 100 µM (inactive).

What about the GI50 (SR) of the same molecule?
Its GI50 is > 100 µM (inactive).

And the GI50 (SW-620)?
Its GI50 is > 100 µM (inactive).

What about the GI50 (T47D) of the same molecule?
The GI50 was > 100 µM (inactive).

And the GI50 (TK-10)?
The GI50 was > 100 µM (inactive).

What about the GI50 (U-251) of the same molecule?
The GI50 was > 100 µM (inactive).

And the GI50 (UACC-257)?
The GI50 was > 100 µM (inactive).

What about the GI50 (UACC-62) of the same molecule?
Its GI50 is > 100 µM (inactive).

What about the GI50 (UO-31) of the same molecule?
The GI50 was > 100 µM (inactive).

For `Cc1ccc2c(c1)C(=O)c1[nH]c3ccc(F)cc3c1CO2`, which GI50 (786-0) is on record?
The GI50 was 12.1 µM (inactive).

And the GI50 (A498)?
The GI50 was 79.4 µM (inactive).

What about the GI50 (A549) of the same molecule?
Its GI50 is 62.2 µM (inactive).

What about the GI50 (ACHN) of the same molecule?
Its GI50 is 28.6 µM (inactive).

And the GI50 (BT-549)?
The GI50 was 31.1 µM (inactive).

What about the GI50 (CAKI-1) of the same molecule?
The GI50 was 27.5 µM (inactive).

And the GI50 (CCRF-CEM)?
Its GI50 is > 100 µM (inactive).

What about the GI50 (COLO 205) of the same molecule?
Its GI50 is > 100 µM (inactive).

What about the GI50 (DU-145) of the same molecule?
The GI50 was > 100 µM (inactive).

And the GI50 (EKVX)?
Its GI50 is 67.6 µM (inactive).

What about the GI50 (HCC 2998) of the same molecule?
The GI50 was > 100 µM (inactive).

And the GI50 (HCT-116)?
Its GI50 is 17.8 µM (inactive).

And the GI50 (HCT-15)?
Its GI50 is greater than 100 µM.

What about the GI50 (HL-60) of the same molecule?
Its GI50 is > 100 µM (inactive).

And the GI50 (HOP-62)?
Its GI50 is 10.1 µM (inactive).

And the GI50 (HOP-92)?
Its GI50 is 81.8 µM (inactive).

What about the GI50 (HT-29) of the same molecule?
Its GI50 is 23.4 µM (inactive).

And the GI50 (Hs-578T)?
The GI50 was 17.6 µM (inactive).

And the GI50 (IGROV-1)?
The GI50 was 30.3 µM (inactive).

And the GI50 (K562)?
Its GI50 is 29 µM (inactive).

And the GI50 (KM12)?
The GI50 was > 100 µM (inactive).

What about the GI50 (LOX IMVI) of the same molecule?
The GI50 was 21.5 µM (inactive).

And the GI50 (M14)?
The GI50 was 18.8 µM (inactive).

What about the GI50 (MCF7) of the same molecule?
Its GI50 is > 100 µM (inactive).

And the GI50 (MDA-MB-231)?
The GI50 was > 100 µM (inactive).

And the GI50 (MDA-MB-435)?
Its GI50 is 58.9 µM (inactive).

What about the GI50 (MDA-N) of the same molecule?
Its GI50 is > 100 µM (inactive).

What about the GI50 (MOLT-4) of the same molecule?
The GI50 was 58.2 µM (inactive).

And the GI50 (Malme-3M)?
The GI50 was 26.3 µM (inactive).

And the GI50 (NCI-H226)?
The GI50 was 31.8 µM (inactive).

What about the GI50 (NCI-H23) of the same molecule?
The GI50 was 25.2 µM (inactive).

And the GI50 (NCI-H460)?
Its GI50 is 33.9 µM (inactive).

What about the GI50 (NCI-H522) of the same molecule?
Its GI50 is 36.6 µM (inactive).

What about the GI50 (NCI/ADR-RES) of the same molecule?
Its GI50 is 58.5 µM (inactive).

And the GI50 (OVCAR-3)?
The GI50 was 36.6 µM (inactive).

And the GI50 (OVCAR-4)?
Its GI50 is 15.3 µM (inactive).

What about the GI50 (OVCAR-5) of the same molecule?
The GI50 was > 100 µM (inactive).

And the GI50 (OVCAR-8)?
The GI50 was 15.8 µM (inactive).

And the GI50 (PC-3)?
Its GI50 is 84.9 µM (inactive).

What about the GI50 (RPMI-8226) of the same molecule?
The GI50 was 39.9 µM (inactive).

What about the GI50 (SF-268) of the same molecule?
Its GI50 is 48 µM (inactive).

What about the GI50 (SF-295) of the same molecule?
Its GI50 is 11.4 µM (inactive).

And the GI50 (SF-539)?
Its GI50 is 13.9 µM (inactive).

And the GI50 (SK-MEL-28)?
Its GI50 is 97.1 µM (inactive).

What about the GI50 (SK-MEL-2) of the same molecule?
Its GI50 is 12.1 µM (inactive).

And the GI50 (SK-MEL-5)?
The GI50 was > 100 µM (inactive).

What about the GI50 (SK-OV-3) of the same molecule?
The GI50 was 15.1 µM (inactive).

What about the GI50 (SN12C) of the same molecule?
The GI50 was > 100 µM (inactive).

And the GI50 (SNB-19)?
Its GI50 is 14.3 µM (inactive).

What about the GI50 (SNB-75) of the same molecule?
The GI50 was 10.3 µM (inactive).

And the GI50 (SR)?
The GI50 was 49.8 µM (inactive).

What about the GI50 (SW-620) of the same molecule?
The GI50 was 24.4 µM (inactive).

What about the GI50 (T47D) of the same molecule?
The GI50 was 21.3 µM (inactive).

What about the GI50 (TK-10) of the same molecule?
The GI50 was 31.8 µM (inactive).

And the GI50 (U-251)?
Its GI50 is 18.5 µM (inactive).

What about the GI50 (UACC-257) of the same molecule?
Its GI50 is > 100 µM (inactive).

And the GI50 (UACC-62)?
Its GI50 is 24.4 µM (inactive).

What about the GI50 (UO-31) of the same molecule?
The GI50 was > 100 µM (inactive).
